According to US10426790B2, “Treatment of allergic eye conditions with cyclodextrins” (Aldeyra Therapeutics, Inc., priority 2016, dated 2019):
“Also recorded” adds a separate entry of the source.

Columns and labels:
[1] = tested on: subjects with allergic conjunctivitis to grass, tree or ragweed pollen (CAPT); assay: Phase IIa Conjunctival Allergen Provocation Test (CAPT) study, activity endpoints; format: in vivo, human; conditions: for efficacy in treating allergic conjunctivitis, result in words: clinical trial, topical ocular, four times daily about two weeks
Description: The primary objective of the study is to evaluate the safety and activity of NS2, i.e., compound of structural formula (I), compared to vehicle in the treatment of moderate to severe allergic conjunctivitis in subjects allergic to grass, ragweed or tree allergens following approximately 2 weeks of treatment using the Conjunctival Allergen Provocation Test (CAPT) model.
This double-blind, vehicle-controlled, randomized, parallel group study allows for testing NS2 versus vehicle in subjects with grass, tree or ragweed-induced allergic conjunctivitis in CAPT model. This study consists of 7 or 8 visits to the clinic (a medical screening visit, a titrating CAPT visit, 1 or 2 confirmatory CAPT visits, a CAPT Onset of Action Visit, and three post-2 week dosing CAPT visits) over approximately 9 weeks.
At Visit 4, site staff will update concomitant medications and collect AEs as applicable. Ophthalmic evaluations are conducted (VA, SLE, subject rating of ocular symptoms, and staff grading of conjunctival redness and lid swelling). Subjects must have ocular itching scores of 0 in each eye and conjunctival redness scores of ≤1 in each eye in each region (nasal and temporal) of each eye in order to participate. […] 30 min prior to the CAPT procedure, clinic staff instills one drop of the randomized treatment into each eye. CAPT is then performed using the concentration titration than what reached the positive response at Visit 3 or 3B. Once the CAPT allergen is instilled, subject assessed symptoms and staff assessed signs are collected at 2.5 (+1 min—itching only), 5, 10, 15 min (+2 min), 30, 60, 90, 120, 150, 180 (+5 min). At the end of the visit, subjects are instructed and dispensed their randomized treatment for 2 weeks of at-home qid dosing and their diary card for recording their dosing, AEs, and concomitant medications. Subjects are scheduled to return for Visit 5 in 2 weeks.
(§1) At Visit 5, site staff will update concomitant medications and collect AEs as applicable. Ophthalmic evaluations are conducted (VA, SLE, subject rating of ocular symptoms, and staff grading of conjunctival redness and lid swelling). Approximately 10 μL of basal tears is collected from both eyes for cytokine analysis prior to drug instillation and CAPT. 30 min prior to the CAPT procedure, clinic staff instills one drop of the randomized treatment into each eye. CAPT is then performed using the concentration titration than what reached the positive response at Visit 3 or 3B. Once the CAPT allergen is instilled, subject assessed symptoms and staff assessed signs are collected at 2.5 (+1 min—itching only), 5, 10, 15 min (+2 min), 30, 60, 90, 120, 150, 180 min (+5 min). Following CAPT instillation, tear collection is begun at the 35 min (+15 min) mark, and approximately 10 μL of basal tears is collected from both eyes.
as §1, with “Visit 6,” for “Visit 5,”, “swelling).” for “swelling). Approximately 10 μL of basal tears is collected from both eyes for cytokine analysis prior to drug instillation and CAPT.”, “min).” for “min). Following CAPT instillation, tear collection is begun at the 35 min (+15 min) mark, and approximately 10 μL of basal tears is collected from both eyes.”
At Visit 7, site staff will update concomitant medications and collect AEs as applicable. Ophthalmic evaluations are conducted (VA, SLE, subject rating of ocular symptoms, and staff grading of conjunctival redness and lid swelling). 30 min prior to the CAPT procedure, clinic staff instills one drop of the randomized treatment into each eye. CAPT is then performed using the concentration titration than what reached the positive response at Visit 3 or 3B. […]

[2] = tested on: subjects with allergic conjunctivitis; assay: Phase IIa CAPT study, safety and tolerability; format: in vivo, human
Description: Clinical Study Endpoints—Safety Endpoints: (1) number and severity of local and systemic reactions, and other adverse reactions; (2) vital signs; (3) slit lamp examination; (4) visual acuity; (5) non-contact tonometry; and (6) fundus examination.
Study Products and Randomization. For study purposes, NS2 0.5% and NS2 0.0% are both referred to as study drug. NS2 is formulated in eye drops for topical ocular use. The drug product is supplied as single dose unpreserved eye drops at an NS2 concentration of 0.5% (w/v). The formulation is 9.5% sulfobutylether-β-cyclodextrin (SBE-β-CD) in sterile water for injection buffered with sodium phosphate, dibasic and monobasic, and pH adjusted to 7.3.
Dose Administration. NS2 ophthalmic drops (0.5%) or NS2 ophthalmic drops (0.0%) Vehicle are provided as single use blow fill vials. One drop is instilled into each eye four times daily for approximately […].
Adverse Events. An adverse event (AE) is defined as any untoward medical occurrence associated with the use of a drug in humans, whether or not considered drug related. Disease signs, symptoms, and/or laboratory abnormalities already existing prior to the use of the product are not considered AEs after treatment unless they reoccur after the subject has recovered from the pre-existing condition or, in the opinion of the investigator, they represent a clinically significant exacerbation in intensity or frequency. AEs are collected from the time the subject signs the informed consent form until the completion of study. AEs reported prior to dosing are captured and considered non treatment emergent AEs.
Safety Analysis. Safety is evaluated via the following parameters: (a) AEs; (b) Vital signs; (c) Slit lamp examination; (d) Visual acuity; (e) Non-contact tonometry; and (f) Fundus examination.
Cyclodextrin Response in CAPT Model. Cyclodextrin was utilized as vehicle in a Randomized, Parallel, Single-Center, Double-Masked, Vehicle-Controlled Phase II Study to Evaluate the Activity of Study Drug NS2 (i.e., structural formula (I)) Ophthalmic Solution in Subjects with Allergic Conjunctivitis using the Conjunctival Allergen Provocation Test (CAPT). There were initial screening and titrating CAPT visits, followed by confirmatory CAPT visits where the allergen dose which reproducibly causes an ocular allergic reaction was selected. This allergen dose was utilized for the active dosing study phase. A CAPT Onset of Action Visit after a single dose of study drug to each eye on dosing Day 1, Visit 4 (V4), and three post-2 week dosing CAPT visits on active dosing days 14, 15 and 16, V5-7. NS2 and vehicle were dosed 4× daily for 16 days. 100 healthy men and women with at least a 2 year history of allergic conjunctivitis to grass, tree or ragweed pollen were enrolled, randomized 1:1, 50 on NS2 and 50 on vehicle containing cyclodextrin.
The allergic conjunctivitis Phase IIa trial was a randomized, parallel group, double-masked, vehicle-controlled design evaluating the activity of NS2 ophthalmic solution in subjects with allergic conjunctivitis. The trial utilized the Conjunctival Allergen Provocation Test, known as the CAPT, and was conducted at a single center, Inflamax Research in Ontario, Canada, which has considerable experience with the CAPT model.

[3] = CAPT, Day 1 single dose and multiple days dosing, NS2 0.5% vs vehicle (9.5% SBE-β-CD)
[4] = 16 days of dosing four times per day, 50 subjects

Molecule	duration of clinical efficacy following each CAPT challenge ([1]; 3 hours studied after each CAPT challenge) [h]	ocular itching score, result in words [1, 3]	ocular tearing score, result in words [1, 3]	lid swelling, frequency and pattern, result in words ([1]; CAPT, NS2 vs vehicle)	efficacy in treating allergic conjunctivitis, result in words [1]	patients of the drug group who withdrew from the study (stinging) [2, 4] [patients]	patients of the drug group who withdrew from the study (stinging), percent [2, 4] [%]	stinging/burning adverse events reported as moderate ([2]; NS2 group)	frequency of stinging and or burning ([2]; NS2 group vs vehicle)	tolerability, result in words ([2]; topical ocular 0.5%, 4x daily, 16 days)	serious adverse events ([2]; whole study)
CC(C)(O)c1nc2ccc(Cl)cc2cc1N [NS2]	≥ 3	statistically significant differences; also recorded: greater effect; also recorded: exceeding one point reductions	statistically significant differences; also recorded: greater effect; also recorded: exceeding one point reductions	appeared similar	greater effect	2	4	less than 10%	increased frequency	generally well tolerated	no serious adverse events
sulfobutylether-β-cyclodextrin					high response rates and significant efficacy						
